Laboratory results from patent US8569361B1, “Aliphatic amino acid biosynthesis inhibitors and a method of synthesizing the same” (priority 2012, dated 2013).
Values after ≈ are worked out from the molar mass of the structure shown.

Tests used:
yeast cells [1] = test: Reversal assay: amino acids/metabolites reversing the antifungal activity at MIC level; type: cell-based, Saccharomyces cerevisiae
Protocol: Performing reversal assay: The reversal assay according to the embodiments herein is performed by the following steps in general: First the yeast strain is grown in presence of minimum inhibitory concentrations of the compounds to be tested. Then different concentrations of amino acids or metabolite intermediates are added to reverse the inhibitory effect of the test compounds. Then again the growth is checked and the minimum concentration of the metabolite or amino acids required for reversing the inhibitory effect is determined.
An experiment was designed for finding the metabolite that reverses the antifungal activity of the test compound.
With respect to FIG. 3, a cell suspension containing 1.5×10^5 yeast/ml was prepared in RPMI medium (1.2×) enriched by 2% glucose. […] 80 μl of this suspension was added to each well of a 96 well micro plate in the second row. Subsequently, two fold dilutions of reversing metabolite were prepared in the first row of the same microplate and 20 μl of each dilution was added to the related well of the second row. The plate was incubated at 30° C. overnight. Following an overnight incubation, the plate was checked for any visible growth of the strain. In case of any growth, the reversing metabolite was considered for further analysis.
In this test, all the amino acids, nucleic acids and intermediate metabolites of citric acid cycle were tested separately.
For all the compounds the mixture of mediators was evaluated. After observing that the compound was reversed, each of the mediating materials was tested separately. Reversal assay test has been done for all of the amino acids like glycine, alanine, leucine, isoleucine and valine.
Row G indicates a compound B in the absence of amino acids and cells. Row H is control cell.

yeast cells [2] = test: Minimum Inhibitory Concentration (MIC) by micro serial dilution in 96 well plate; type: cell-based; conditions: Saccharomyces cerevisiae, 48 hours incubation
Protocol: Two fold serial dilutions of the compounds to be tested according to the embodiments herein were prepared in 96 well plates. 40 μl of appropriate test compound dilution was added to 160 μl of culture medium and the plate was incubated at 30° C. The culture medium is Yeast Peptone Dextrose agar (YPD) containing 10^3 yeast cells. The growth of yeast cells was monitored for 24 hr and 48 hr. Fluorouracil was used as a positive control and Dimethyl sulfoxide (DMSO-control solvent) was used as negative control. The minimum concentration of the test compound A which inhibits the fungal growth was defined as MIC. MIC level is defined as the minimum concentration of the compound which prevents the growth of pathogen. […]
After providing a serial dilution in the second row, 20 μl of the wells of the second row was transformed to the wells of first row and final volume of the wells of first row was changed to 100 μl. Finally, a surrounding part of each plate was covered with parafilm and was incubated under 37 degree of centigrade. the results were read out After 24 hours and 48 hours. […]
As a result of the growth of the fungus the medium is becoming cloudy. […] For defining the MIC, as well as the sample, positive control i.e. an approved antifungal drug like fluorouracil were measured. A solution control and a negative control i.e. only the fungal suspension were measured. […]

ILV2 = test: Semi-quantitative RT-PCR expression analysis of ilv2; type: cell-based, Saccharomyces cerevisiae BY4741; conditions: sub-lethal dose, 4 hours treatment; actin loading control
Protocol: (§1) A semi quantitative RT-PCR analysis was used to investigate any possible effect of new antifungal compounds on the expression level of candidate gene targets.
(§2) The RNA samples were prepared by using a commercial kit i.e. RNA easy mini kit, QIAGEN, Germany. A beads cell disrupter i.e. Micro Smash™, Tomy, Japan was used during the cell lysis process. All RNA preparation steps were performed according to the manufacturer's instructions.
(§3) 1 microgram of total RNA was used in cDNA synthesis reaction. A commercial kit i.e. first strand cDNA Synthesis Kit, Fermentas, USA was used for cDNA synthesis. Total cDNA was prepared using random hexamer primer and all steps were according to the manufacturer's instructions. A typical reaction was performed as table 1 below.
(§4) RT-PCR analysis was carried out to examine the effect of new antifungal compounds on the expression level of genes involved in aliphatic amino acids biosynthesis. Three genes, ilv2, ilv3 and ilv5 were chosen for further analysis. RNA samples were isolated from the yeast cells exposed to sub-lethal or sub-inhibitory concentrations of new antifungal compounds and following a cDNA preparation. RT-PCR was performed using the gene specific primers.
(§5) RT-PCR products were visualized by electrophoresis on agarose gel and staining by ethidium bromide.
(§6) An overnight culture of yeast Saccharomyces cerevisiae BY4741 was prepared. […]

ILV5 = test: Semi-quantitative RT-PCR expression analysis of ilv5; type: cell-based, Saccharomyces cerevisiae BY4741; conditions: sub-lethal dose, 4 hours treatment; actin loading control
Protocol: as §1, §2, §3, §4, §5, §6

ILV3 = test: Semi-quantitative RT-PCR expression analysis of ilv3; type: cell-based, Saccharomyces cerevisiae BY4741; conditions: sub-lethal dose, 4 hours treatment; actin loading control
Protocol: as §1, §2, §3, §4, §5, §6

Row | Compound | reversal property of the antifungal activity (yeast cells [1]) | MIC (yeast cells [2]) [mg/L] | Expression level of ilv2, treated vs untreated cells (ILV2) | Expression level of ilv5, treated vs untreated cells (ILV5) | Minimum Reversal Concentration (MRC), isoleucine (yeast cells [1]; isoleucine added 0-200 μg/ml, compound at constant MIC level) [µg/mL] | Minimum Reversal Concentration (MRC), leucine (yeast cells [1]; leucine added 0-200 μg/ml, compound at constant MIC level) [µg/mL] | Minimum Reversal Concentration (MRC), valine (yeast cells [1]; valine added 0-200 μg/ml, compound at constant MIC level) [µg/mL] | Expression level of ilv3, treated vs untreated cells (ILV3)
1 | C#CC(=O)Oc1ccc2ccc(=O)oc2c1 [compound A, 2-oxo-2H-chromen-7-yl propiolate] | lacks the reversal property | – | – | – | – | – | – | –
2 | CCOC(=O)C#C/C=C/C(=O)OCC [compound B, diethyl-hex-2-en-4-yne-dioate] | – | 1.5 (≈ 7.65 µM) | unchanged | higher than that in the untreated cells | 25 | 12.5 | 12.5 | unchanged
